Patent US7645740B2, “Peptide sequence found in Laminin 5 for treating skin impairments” (Laboratoires d'Anjou Centre National de la Recherche …, priority 2004, dated 2010)

Legend:
[1] = tested on: NHK-young; assay: Cell proliferation test (XTT), NHK-young; format: cell-based, human; conditions: peptide 0.05% and 0.1%, 5th hour
Protocol: (§1) NHK-10 years and NHK-71 years were seeded in 96-well plates at a rate of 10,000 cells per well. After 24 hours, the culture medium was removed and replaced with serum-free medium containing the peptide quantities given in the graphs and reagent XTT. The plates were then placed in the incubator at 37° C. and absorbance readings were taken at 1 h, 2 h, 3 h, 4 h and 5 h. Peptide-free controls were carried out on the same plate.
(§2) The effect of the peptide on cell proliferation was analysed with the aid of a calorimetric test (Cell Proliferation Kit XTT, Roche Diagnostics, Meylan, France) on the cells use for the cell adhesion test, i.e. HT1080, A431, HBL100 cells and normal human keratinocytes from young and elderly individuals.
(§3) The chemical reaction used in the test is based on the production of NADPH by living cells, leading to the reduction of yellow tetrazolium XTT salts to orange formazan salts. Absorbance was measured at 490 nm using an ELISA plate reader. Cells were seeded in 96-well plates at a rate of 10,000 cells per well (6 wells/condition) in KBM-2 culture medium. After 24 hours in culture at 37° C. with 5% CO2, the culture medium was removed and replaced with serum-free medium containing the peptide quantities given in the graphs and the test reagent. The plates were then placed in the incubator at 37° C. and absorbance readings were taken at 1 h, 2 h, 3 h, 4 h and 5 h. […]

[2] = tested on: normal human keratinocytes; assay: Cell adhesion test to immobilized peptides, normal human keratinocytes; format: cell-based
Protocol: Dose-dependent cell adhesion of normal human keratinocytes to various peptides 1, 2 and 3. The peptides were immobilized in 96-well plates at the concentrations given on the abscissa. 10^5 cells were deposited in each well and plates were incubated at 37° C. for 1 hour. After washing, attached cells were fixed and cell adhesion was measured as described in the methodology section.
Peptides 1, 2 and 3 were used for the cell adhesion experiments. A range of 7 decreasing concentrations (100 micrograms/ml, 50 micrograms/ml, 25 micrograms/ml, 12.5 micrograms/ml, 6.25 micrograms/ml, 3.125 micrograms/ml and 1.562 micrograms/ml) was made up by successive dilution in PBS (Phosphate Buffer Saline, KH2PO4 1.54 mM; Na2HPO4 1.42 mM; NaCl-131 mM) using a starting solution at a concentration of 1 mg/ml. These solutions were immediately distributed onto a 96-well culture plate (Greinher, Dutscher, Brumath, France) at a rate of 100 μl per well. Plates were then placed at +4° C. for 16 to 18 hours. The solutions were then removed by turning the plates and each well was saturated with a 1% PBS-BSA solution (bovine serum albumin). Three additional wells without the substrate underwent the same treatment and were used as blanks.
Epithelial cells were detached from the culture dishes using a trypsin/EDAT solution (0.05-0.02%) then suspended in DMEM medium without additives for the cell lines and in KBM-2 without additive for human keratinocytes. The number of seeded cells per well is given in the graphs (50,000 to 100,000 cells per well).
After cell seeding, the multi-well plates were placed in an incubator at 37° C. under 5% CO2. After incubation for 30 to 60 minutes, cells were observed under a phase contrast microscope in order to verify that the test was conducted correctly. The adhesion medium was then removed and each well was washed in a sterile PBS solution to remove non-adhering cells. The remaining cells, attached to the substrate, were then fixed using a solution of 1% glutaraldehyde in PBS for 15 minutes. The glutaraldehyde solution as removed and the cells were stained with a crystal violet solution diluted to 1% in distilled water for 30 minutes.
After rinsing in water several times, cells were permeabilized by means of a 0.02% triton solution for 15 minutes in order to solubilize the crystal violet. Absorbances were read at 570 nm using an ELISA plate reader (MR500, Dynatech, Guernsey, Channel Islands). Each experimental point was carried out in triplicate. The blank value represented the mean absorbance of 3 control wells (BSA). This was subtracted from each of the optical density values for the experimental points. We then calculated the mean for the three absorbance values for each of the triplicate samples.
The results are presented in the form of a graph with the absorbance values on the ordinate and the various substrate concentrations on the abscissa. Attached cells were photographed by phase contrast microscopy.
Freshly isolated normal human keratinocytes were used in a second experiment. As the basal keratinocytes of the epidermis are in direct contact with LN-5 in the skin, it was necessary to test their adhesion capacity to the peptide in question. Human keratinocytes were obtained from a foreskin biopsy (surgery waste, Pavillon T-Bis, Eduard Herriot Hospital). […]

[3] = tested on: A431 cells; assay: Cell proliferation test (XTT), A431; format: cell-based; conditions: A431, peptide 0.5% and 1%, serum-free medium, 5th hour
Protocol: as §1, with “A431 cells” for “NHK-10 years and NHK-71 years”
as §2
The chemical reaction used in the test is based on the production of NADPH by living cells, leading to the reduction of yellow tetrazolium XTT salts to orange formazan salts. Absorbance was measured at 490 nm using an ELISA plate reader. […] After 24 hours in culture at 37° C. with 5% CO2, the culture medium was removed and replaced with serum-free medium containing the peptide quantities given in the graphs and the test reagent. The plates were then placed in the incubator at 37° C. and absorbance readings were taken at 1 h, 2 h, 3 h, 4 h and 5 h. […] In this case, cell viability was calculated according to the following formula: % viability=(Abs. Cells with peptide/Abs. Control cells)×100.

[4] = tested on: NHK-old; assay: Cell proliferation test (XTT), NHK-old; format: cell-based, human; conditions: peptide 0.05% and 0.1%, 5th hour
Protocol: as §1, §2, §3

Sequence: TALRIRATYGEY (Human laminin 5) [Peptide 1]
- mean increase in proliferation compared to the control [1]: ≤ 7%
- cell adhesion to immobilized peptide ([2]; 0 to 10 micrograms immobilized peptide, 10^5 cells per well, 1 hour 37° C., absorbance 570 nm): effect also occurred
- immobilized peptide quantity at which adhesion occurred ([2]; FIG. 5): 0.15 micrograms
- immobilized peptide quantity at which maximum adhesion was achieved ([2]; FIG. 5): 0.62 micrograms
- mean increase in cell proliferation compared to the control [3]: 8%
- mean increase in proliferation compared to the control [4]: ≤ 7%
